# Laboratory results as given in paper PMC10764553, “Characterization of a thermophilic and glucose-tolerant GH1 β-glucosidase from hot springs and its prospective application in corn stover degradation” (Frontiers in Microbiology, 2023).
# Key:
# LQBG8 [1] = system: T1, LQBG8; test: glucose release (glucose oxidase-peroxidase), Lineweaver-Burk; format: biochemical; settings: 70 °C, pH 5.6; cellobiose 0-20 mg/mL (Km lies above the tested range)
# T1 construct: differs from Tepidiforma bonchosmolovskayae WP158066159.1 only at residue 48 (Ser in LQBG8, Gly there)
# LQBG8 [2] = system: T1, LQBG8; test: p-nitrophenol release at […] nm; format: biochemical; settings: optimal temperature (70 °C); pH not stated for this assay
Km (LQBG8 [1]) [mg/mL],Km (LQBG8 [2]) [µM],Compound
28 ± 1.9,,OC[C@H]1O[C@@H](O[C@H]2[C@H](O)[C@@H](O)C(O)O[C@@H]2CO)[C@H](O)[C@@H](O)[C@@H]1O (some centres unmarked) [cellobiose]
,260 ± 10,O=[N+]([O-])c1ccc(O[C@@H]2O[C@H](CO)[C@@H](O)[C@H](O)[C@H]2O)cc1 [p-nitrophenyl-β-D-glucopyranoside]
